Entries after “also recorded” stand apart in the source; their conditions may differ.
Experiments:
RAW264.7 cells [1] = experiment: EFAD formation in activated RAW264.7 cells treated with inhibitors; assay type: cell-based, murine
PPARγ = target: T1, PPARγ (Homo sapiens, UniProt P37231); experiment: PPARγ beta-lactamase reporter assay; assay type: cell-based; conditions: concentrations 0.5-10,000 nM, read-out: EC50 PPARγ activation
T1 sequence (P37231 1-505): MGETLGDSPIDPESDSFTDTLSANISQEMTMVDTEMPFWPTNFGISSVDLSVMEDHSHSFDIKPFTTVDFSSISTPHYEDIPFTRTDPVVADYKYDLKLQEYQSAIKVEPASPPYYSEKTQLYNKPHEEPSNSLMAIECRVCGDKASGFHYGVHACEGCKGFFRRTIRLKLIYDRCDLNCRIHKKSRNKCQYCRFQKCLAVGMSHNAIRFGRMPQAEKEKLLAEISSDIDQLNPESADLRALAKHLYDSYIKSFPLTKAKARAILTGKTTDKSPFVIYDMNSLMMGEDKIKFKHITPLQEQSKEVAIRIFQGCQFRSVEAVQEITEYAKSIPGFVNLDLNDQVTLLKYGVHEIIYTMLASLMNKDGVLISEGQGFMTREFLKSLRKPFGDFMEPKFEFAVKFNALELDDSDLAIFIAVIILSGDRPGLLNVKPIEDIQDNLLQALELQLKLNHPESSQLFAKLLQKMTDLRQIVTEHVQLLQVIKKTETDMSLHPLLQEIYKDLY
Protocol: (§1) FIG. 11 illustrates modulation of anti-oxidant and inflammatory responses by 17-oxoDHA and 17-oxoDPA. RAW264.7 cells were treated with increasing concentration of 17-oxoDHA and 17-oxoDPA. (a) Cells were harvested 1 h after treatment and Nrf2 levels were quantified in nuclear extracts, (b) Cells were harvested 18 h after treatment and HO—I and Nqol (upper band) levels were measured by western blot, (c, d) RAW264.7 cells were treated with increasing concentration of 17-oxoDHA and 17-oxoDP A for 6 h and Kdo2+IFNγ were added. Samples were collected at 12 h. IL-6, MCP-I and IL-IO levels were measured in the cell media by Quantikine ELISA Kit (R&D Systems) and normalized by the total protein content (c); Nitrite levels were measured in the cell media and normalized by the total protein content and iNOS and Cox-2 levels were measured in total cell lysates (d); (e) PPARγ beta-lactamase reporter assays were performed for Rosiglitazone, 17-OxoDPA, 17-OxoDHA, 15d-PGJ2, 17-hydroxyDHA, DPA, and DHA with concentrations ranging from 0.5-10,000 nM.
The observation that oxo-fatty acids, such as 15d-PGJ230, 5-oxoEPA, 6-oxoOTE, and the synthetic 4-oxoDHA31, covalently bind and activate the peroxisome proliferator-activated receptor γ (PPARγ), prompted the present inventors to test the ability of 17-oxoDPA, and 17-oxoDHA to activate PPARγ. Thus PPARγ beta-lactamase reporter assays were performed using Roziglitazone, a potent synthetic PPARγ agonist, was used in the assay as positive control.

RAW264.7 cells [2] = experiment: Cytokine levels (IL-6, MCP-I, IL-10) in activated RAW264.7 cells, ELISA; assay type: cell-based, murine
Protocol: as §1
To investigate whether the 17-oxo DHA and 17-oxo DPA played a role in modulating the inflammatory response generated by Kdo2 and IFNγ, the present investigators study the change in levels of cytokines, IL-6, MCP-I and IL-IO in cells exposed to increasing doses of 17-oxo DHA and 17-oxo DPA. […]

GAPDH = GAPDH (Oryctolagus cuniculus, UniProt P46406); experiment: In vitro alkylation of GAPDH, mass spectrometric analysis; assay type: biochemical, rabbit
Sequence of GAPDH (P46406 whole entry): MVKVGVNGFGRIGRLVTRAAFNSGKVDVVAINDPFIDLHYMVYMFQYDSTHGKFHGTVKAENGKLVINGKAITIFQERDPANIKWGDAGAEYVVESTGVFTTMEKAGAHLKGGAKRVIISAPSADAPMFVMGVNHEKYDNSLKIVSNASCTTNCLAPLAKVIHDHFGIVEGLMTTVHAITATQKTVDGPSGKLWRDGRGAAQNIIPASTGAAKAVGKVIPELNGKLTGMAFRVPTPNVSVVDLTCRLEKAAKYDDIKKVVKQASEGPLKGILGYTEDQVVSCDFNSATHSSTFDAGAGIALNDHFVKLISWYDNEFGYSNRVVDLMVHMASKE
Source text: FIG. 21 illustrates the mass spectrometric analysis of an in vitro reaction of GAPDHvith EFAD-2. Four residues were detected and confirmed-as being targets for EfAD-2 in treated rabbit GAPDH. The peptides were alkylated as Cys244 (a), His163 (b), Cys149 (c) and His328 (d). Upper panels show EFAD-2 modified peptides and lower panels show spectra from corresponding native peptide.
To more specifically test the binding of EFADs to nucleophilic residues in proteins, we tested whether GAPDH was alkylated by EFADs. This enzyme is a well-characterized target for electrophiles and becomes easily inactivated by nitrosylation, oxidation or nucleophilic addition.

[3] = system: inducible nitric oxide synthase (iNOS); experiment: iNOS induction and nitrite accumulation in activated RAW264.7 cells; assay type: cell-based, murine; conditions: RAW264.7 activated with Kdo2 and IFNγ
Protocol: as §1
For activation experiments RAW 264.7 cells were seeded, incubated overnight, and treated at approximately 80% confluence with the indicated compounds 47. Non-activated controls were treated with vehicle alone. During activation, cells were maintained in an activation medium (SMEM) of Minimum Essential Medium Eagle (Cellgro, 17-305)+2% FBS supplemented with L-glutamine (584 mg/L), Na-pyruvate (110 mg/L) and Hepes (3.57 g/L, pH 7.4). For inhibition studies, inhibitors were added to the medium at the time of activation and MTT assays were used to confirm cell viability. Cells were harvested 20 h post activation (unless otherwise indicated) in 50 mM phosphate buffer (pH 7.4) and snap frozen in liquid N2. […]
(§2) Protein concentrations of samples were measured by BCA assay (Pierce). […] Actin (detected by Sigma A2066) was used as loading control. […]
(§3) Total nitrite and nitrate concentration was measured in cell culture media by Griess reaction using the Nitrate/Nitrite Colorimetric Assay Kit (Cayman Chemical).

RAW264.7 cells [4] = experiment: Nitrite levels in cell media of activated RAW264.7 cells (Griess reaction); assay type: cell-based, murine; conditions: 6 h pretreatment, then Kdo2+IFNγ, 12 h
Protocol: as §1
For activation experiments RAW 264.7 cells were seeded, incubated overnight, and treated at approximately 80% confluence with the indicated compounds 47. […]
as §3

Nrf2 = Nrf2 nuclear accumulation and HO-1/Nqo1 expression, western blot; assay type: cell-based, murine; conditions: RAW264.7; Nrf2 at 1 h, HO-1/Nqo1 at 18 h
Protocol: as §1
As described above, compounds of the invention can react with biological thiols to form reversible covalent adducts. […]
as §2

[5] = RAW264.7 activated with Kdo2 and IFNγ, inhibitor added at activation, 20 h

With `CC(C)Cc1ccc(C(C)C(=O)O)cc1` (racemic) [ibuprofen] the “inhibition of EFAD production” value (RAW264.7 cells [1]; [5]) was “more than 80%” and the “effect on EFAD-I formation” value (RAW264.7 cells [1]; ibuprofen 100 μM, exception stated in the text) was “no significant effect”.
`CCCCCC=CC=C1C(=O)C=C[C@@H]1CC=CCCCC(=O)O` [15d-PGJ2, 15-deoxy-Δ (12,14)-prostaglandin J2, reference compound] was tested, and the EC50 (PPARγ) was ~25 nM.
In the case of `CC/C=C\CC(O)/C=C/C=C\C/C=C\C/C=C\CCCCCC(=O)O` (stereo not shown) [17-OH-DPA, 17-OH(7Z,10Z,13Z,15A,19Z)-docosa-7,10,13,15,19-pentanoic acid, reference compound], the EC50 (PPARγ) is reported as > 10000 nM.
For `CC/C=C\CC(=O)C=C/C=C\C/C=C\C/C=C\C/C=C\CCC(=O)O` [17-oxoDHA, 17-oxo-(4Z,7Z,10Z,13Z,15A,19Z)-docosa-4,7,10,13,15,19-hexanoic acid], the EC50 (PPARγ) was ~40 nM, the “IFNγ and LPS-induced cytokine production” value (RAW264.7 cells [2]) was “inhibited” and the “adduct formation with GAPDH residues” value (GAPDH) was “covalently bind Cys and His residues”. For the same molecule, the “iNOS induction and accumulation of nitrite in the cell media” value [3] was “dose-dependent inhibition”, the “reduction of nitrite production” value (RAW264.7 cells [4]; 20 μM) was −70% and the “Nrf2 nuclear accumulation and expression of HO-1 and Nqo1” value (Nrf2) was “promoted dose-dependent Nrf2 nuclear accumulation; also recorded: induced the anti-oxidant response”.
With `CC/C=C\CC(=O)C=C/C=C\C/C=C\C/C=C\CCCCCC(=O)O` [17-oxoDPA, 17-oxo-(7Z,10Z,13Z,15A,19Z)-docosa-7,10,13,15,19-pentanoic acid] the EC50 (PPARγ) was ~40 nM, the “IFNγ and LPS-induced cytokine production” value (RAW264.7 cells [2]) was “inhibited” and the “adduct formation with GAPDH residues” value (GAPDH) was “covalently bind Cys and His residues”. The “iNOS induction and accumulation of nitrite in the cell media” value [3] was “dose-dependent inhibition”, the “reduction of nitrite production” value (RAW264.7 cells [4]; 25 μM) was −70% and the “Nrf2 nuclear accumulation and expression of HO-1 and Nqo1” value (Nrf2) was “promoted dose-dependent Nrf2 nuclear accumulation; also recorded: induced the anti-oxidant response”.
`CCCCCC#CCC#CCC#CCC#CCCCC(=O)O` [ETYA, Eicosatetraynoic acid] was tested, and the “effect on EFAD formation” value (RAW264.7 cells [1]; [5]) was “strongly inhibit”.
With `COc1ccc2c(c1)c(CC(=O)O)c(C)n2C(=O)c1ccc(Cl)cc1` [Indomethacin] the “effect on EFAD formation” value (RAW264.7 cells [1]; [5]) was “completely abolish”.
In the case of `CC(C)c1ccc2c(c1)c(SC(C)(C)C)c(CC(C)(C)C(=O)O)n2Cc1ccc(Cl)cc1` [MK886], the “effect on EFAD formation” value (RAW264.7 cells [1]; [5]) is reported as “no significant effect”.
`CS(=O)(=O)Nc1ccc([N+](=O)[O-])cc1OC1CCCCC1` [NS-398] was tested, and the “effect on EFAD formation” value (RAW264.7 cells [1]; [5]) was “abolished”.
`C=C1[C@@H](O)[C@@H]2O[C@]3(CC[C@H](/C=C/[C@@H](C)[C@@H]4CC(C)=C[C@@]5(O[C@H](C[C@@](C)(O)C(=O)O)CC[C@H]5O)O4)O3)CC[C@H]2O[C@@H]1[C@@H](O)C[C@H](C)[C@H]1O[C@@]2(CCCCO2)CC[C@H]1C` [OKA, okadaic acid] was tested, and the “effect on EFAD formation” value (RAW264.7 cells [1]; [5]) was “slight increase”.
With `O=C(O)Cc1ccccc1Nc1c(Cl)cccc1Cl` [diclofenac] the “effect on EFAD formation” value (RAW264.7 cells [1]; [5]) was “completely abolish”.

Reference: patent publication US20150018417A1, “FATTY ACIDS AS ANTI-INFLAMMATORY AGENTS” (University of Pittsburgh - Of the Commonwealth System of …, priority 2012, published 2015)
